Laboratory results reported in patent publication US12268674B2, “Mi-2β inhibitor as an immunotherapy agent” (BioVentures, LLC, priority 2021, dated 2025).

Columns and labels:
[1] = tested on: Mi-2β target gene expression in B16F10 cells; test: RT-qPCR of Mi-2β target genes in B16F10 cells treated with Z36-MP5; type: cell-based, mouse; conditions: 25 μM, 24 hours
Procedure: Z36-MP5 was chosen for further validation and experimental therapeutics in vivo. […] To investigate its cellular inhibitory activity, B16-F10 cells were treated with Z36-MP5 at concentrations ranging from 5 to 100 μM, and the activation of Mi-2β target genes measured by RT-qPCR. Z36-MP5 at 25 μM induced Mi-2β target gene expression including Cxc9, Cxcl10 and Irf1 (FIG. 11c) in B16F10 cells. We also performed the co-culture assays of B16F10 cells with activated Pmel-1 T cells to identify whether Z36-MP5 stimulation can activate T cell mediated cytotoxicity. […] In addition, the pharmacokinetic properties of Z36-MP5 in Sprague-Dawley rats with administration of intraperitoneal injection dose of 1.0 mg/kg.
The total RNA was extracted with QIAGEN RNeasy kit […] for cDNA synthesis with SuperScript II Reverse Transcriptase (Invitrogen). In total, 40 ng cDNA was used for quantitative real-time PCR amplification by TaqMan Gene Expression Master Mix (Thermo Fisher Scientific). The relative transcript levels were normalized with GAPDH expression. The data were calculated with the comparative CT method.

ABCB6 = molecular target: T1, ABCB6 (Homo sapiens, UniProt Q9NP58); test: ATPase profile (ATP acyl phosphate probe); type: binding; conditions: ABCB6, SEQ ID NO: 3, ATP BS
T1 construct: to get the native cell lysate; host or cells: A375 cell lysate

ABCC10 = molecular target: T2, ABCC10 (Homo sapiens, UniProt Q5T3U5); test: ATPase profile (ATP acyl phosphate probe); type: binding; conditions: ABCC10, SEQ ID NO: 7, ATP BS
T2 construct: to get the native cell lysate; host or cells: A375 cell lysate

ABCF1 = molecular target: T3, ABCF1 (Homo sapiens, UniProt Q8NE71); test: ATPase profile (ATP acyl phosphate probe); type: binding; conditions: ABCF1, SEQ ID NO: 16, ATP BS
T3 construct: to get the native cell lysate; host or cells: A375 cell lysate

ABCF2 = molecular target: T4, ABCF2 (Homo sapiens, UniProt Q9UG63); test: ATPase profile (ATP acyl phosphate probe); type: binding
T4 construct: to get the native cell lysate; host or cells: A375 cell lysate
T4 sequence (Q9UG63 whole entry): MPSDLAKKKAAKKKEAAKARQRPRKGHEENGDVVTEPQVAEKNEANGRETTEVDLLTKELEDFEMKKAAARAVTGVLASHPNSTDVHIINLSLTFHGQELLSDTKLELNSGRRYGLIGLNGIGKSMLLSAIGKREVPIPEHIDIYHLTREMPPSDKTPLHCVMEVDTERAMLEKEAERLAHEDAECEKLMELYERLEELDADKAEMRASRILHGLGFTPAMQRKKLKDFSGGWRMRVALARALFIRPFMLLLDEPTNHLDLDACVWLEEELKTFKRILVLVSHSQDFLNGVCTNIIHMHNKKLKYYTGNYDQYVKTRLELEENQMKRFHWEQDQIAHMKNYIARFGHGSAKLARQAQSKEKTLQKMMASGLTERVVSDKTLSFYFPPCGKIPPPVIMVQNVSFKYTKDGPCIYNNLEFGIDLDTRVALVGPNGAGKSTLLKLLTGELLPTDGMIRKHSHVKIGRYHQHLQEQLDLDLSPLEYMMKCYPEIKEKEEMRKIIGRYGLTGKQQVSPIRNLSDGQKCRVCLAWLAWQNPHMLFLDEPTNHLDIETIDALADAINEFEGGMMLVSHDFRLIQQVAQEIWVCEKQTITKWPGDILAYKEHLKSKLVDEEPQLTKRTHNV

ACACA = molecular target: T5, ACACA (Homo sapiens, UniProt Q13085); test: ATPase profile (ATP acyl phosphate probe); type: binding; conditions: SEQ ID NO: 20, ATP BS
T5 construct: to get the native cell lysate; host or cells: A375 cell lysate

ACTR2 = molecular target: T6, ACTR2 (Homo sapiens, UniProt P61160); test: ATPase profile (ATP acyl phosphate probe); type: binding
T6 construct: to get the native cell lysate; host or cells: A375 cell lysate

CCT3 = molecular target: T7, CCT3 (Homo sapiens, UniProt P49368); test: ATPase profile (ATP acyl phosphate probe); type: binding; conditions: CCT3, SEQ ID NO: 52, ATP BS
T7 construct: to get the native cell lysate; host or cells: A375 cell lysate

CCT4 = molecular target: T8, CCT4 (Homo sapiens, UniProt P50991); test: ATPase profile (ATP acyl phosphate probe); type: binding; conditions: CCT4, SEQ ID NO: 53, ATP BS
T8 construct: to get the native cell lysate; host or cells: A375 cell lysate

CLPX = molecular target: T9, CLPX (Homo sapiens, UniProt O76031); test: ATPase profile (ATP acyl phosphate probe); type: binding; conditions: SEQ ID NO: 59, ATP BS
T9 construct: endogenous in cells; host or cells: A375 cell lysate

CNP = molecular target: T10, CNP (Homo sapiens, UniProt P09543); test: ATPase profile (ATP acyl phosphate probe); type: binding; conditions: SEQ ID NO: 61, ATP BS
T10 construct: endogenous in cells; host or cells: A375 cell lysate

CPS1 = molecular target: T11, CPS1 (Homo sapiens, UniProt P31327); test: ATPase profile (ATP acyl phosphate probe); type: binding; conditions: CPS1, SEQ ID NO: 64, labeling site Other
T11 construct: endogenous in cells; host or cells: A375 cell lysate

DHX15 = molecular target: T12, DHX15 (Homo sapiens, UniProt O43143); test: ATPase profile (ATP acyl phosphate probe); type: binding; conditions: DHX15, SEQ ID NO: 72, ATP BS
T12 construct: endogenous in cells; host or cells: A375 cell lysate

GARS = molecular target: T13, GARS (Homo sapiens, UniProt P41250); test: ATPase profile (ATP acyl phosphate probe); type: binding; conditions: SEQ ID NO: 79, ATP BS
T13 construct: endogenous in cells; host or cells: A375 cell lysate

HDDC3 = molecular target: T14, HDDC3 (Homo sapiens, UniProt Q8N4P3); test: ATPase profile (ATP acyl phosphate probe); type: binding
T14 construct: to get the native cell lysate; endogenous in cells; host or cells: A375
T14 sequence (Q8N4P3 whole entry): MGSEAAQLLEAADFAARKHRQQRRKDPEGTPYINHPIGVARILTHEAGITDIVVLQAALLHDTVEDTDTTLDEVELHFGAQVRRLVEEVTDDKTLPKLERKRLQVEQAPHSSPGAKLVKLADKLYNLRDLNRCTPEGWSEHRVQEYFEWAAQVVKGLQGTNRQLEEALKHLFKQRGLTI

[2] = tested on: HSP90AA, HSP90AA2, HSP90AB1; test: ATPase profile (ATP acyl phosphate probe); type: binding; conditions: HSP90AA2, HSP90AB1, SEQ ID NO: 96, ATP BS
HSPA9 = molecular target: T15, HSPA9 (Homo sapiens, UniProt P38646); test: ATPase profile (ATP acyl phosphate probe); type: binding; conditions: HSPA9, SEQ ID NO: 108, ATP BS
T15 construct: to get the native cell lysate; endogenous in cells; host or cells: A375
T15 sequence (P38646 47-679): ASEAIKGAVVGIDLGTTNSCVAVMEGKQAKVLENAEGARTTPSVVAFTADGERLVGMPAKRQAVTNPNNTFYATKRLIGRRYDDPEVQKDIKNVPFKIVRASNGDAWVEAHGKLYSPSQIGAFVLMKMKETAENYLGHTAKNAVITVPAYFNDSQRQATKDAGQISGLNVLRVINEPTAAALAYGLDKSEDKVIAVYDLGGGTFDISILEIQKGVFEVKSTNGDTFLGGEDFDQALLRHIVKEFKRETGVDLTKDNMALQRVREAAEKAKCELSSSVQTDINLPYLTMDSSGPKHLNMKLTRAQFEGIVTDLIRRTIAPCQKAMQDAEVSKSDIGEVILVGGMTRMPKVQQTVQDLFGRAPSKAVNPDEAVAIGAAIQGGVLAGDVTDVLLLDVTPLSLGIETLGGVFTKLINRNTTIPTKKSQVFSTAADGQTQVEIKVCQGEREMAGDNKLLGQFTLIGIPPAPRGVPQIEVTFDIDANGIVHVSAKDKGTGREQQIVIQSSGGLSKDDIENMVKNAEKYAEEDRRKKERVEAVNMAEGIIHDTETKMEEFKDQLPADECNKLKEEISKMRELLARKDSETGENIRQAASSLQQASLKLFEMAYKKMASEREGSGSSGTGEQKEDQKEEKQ

KARS = molecular target: T16, KARS (Homo sapiens, UniProt Q15046); test: ATPase profile (ATP acyl phosphate probe); type: binding; conditions: SEQ ID NO: 112, ATP BS
T16 construct: to get the native cell lysate; endogenous in cells; host or cells: A375

MTHFD1 = molecular target: T17, MTHFD1 (Homo sapiens, UniProt P11586); test: ATPase profile (ATP acyl phosphate probe); type: binding; conditions: MTHFD1, SEQ ID NO: 125, ATP BS
T17 construct: to get the native cell lysate; endogenous in cells; host or cells: A375

NADK2 = molecular target: T18, NADK2 (Homo sapiens, UniProt Q4G0N4); test: ATPase profile (ATP acyl phosphate probe); type: binding; conditions: NADK2, SEQ ID NO: 129, ATP BS
T18 construct: to get the native cell lysate; endogenous in cells; host or cells: A375
T18 sequence (Q4G0N4 63-442): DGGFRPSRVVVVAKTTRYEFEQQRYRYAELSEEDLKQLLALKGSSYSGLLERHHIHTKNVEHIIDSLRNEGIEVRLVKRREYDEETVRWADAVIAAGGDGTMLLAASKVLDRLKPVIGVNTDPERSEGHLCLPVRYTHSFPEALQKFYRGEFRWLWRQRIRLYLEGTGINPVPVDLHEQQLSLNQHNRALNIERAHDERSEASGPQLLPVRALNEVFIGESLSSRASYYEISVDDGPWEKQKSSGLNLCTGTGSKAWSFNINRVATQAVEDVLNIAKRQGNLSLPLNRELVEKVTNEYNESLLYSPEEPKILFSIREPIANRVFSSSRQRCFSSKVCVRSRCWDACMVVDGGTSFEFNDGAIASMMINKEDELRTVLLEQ

PCCA = molecular target: T19, PCCA (Homo sapiens, UniProt P05165); test: ATPase profile (ATP acyl phosphate probe); type: binding
T19 construct: to get the native cell lysate; endogenous in cells; host or cells: A375
T19 sequence (P05165 53-728): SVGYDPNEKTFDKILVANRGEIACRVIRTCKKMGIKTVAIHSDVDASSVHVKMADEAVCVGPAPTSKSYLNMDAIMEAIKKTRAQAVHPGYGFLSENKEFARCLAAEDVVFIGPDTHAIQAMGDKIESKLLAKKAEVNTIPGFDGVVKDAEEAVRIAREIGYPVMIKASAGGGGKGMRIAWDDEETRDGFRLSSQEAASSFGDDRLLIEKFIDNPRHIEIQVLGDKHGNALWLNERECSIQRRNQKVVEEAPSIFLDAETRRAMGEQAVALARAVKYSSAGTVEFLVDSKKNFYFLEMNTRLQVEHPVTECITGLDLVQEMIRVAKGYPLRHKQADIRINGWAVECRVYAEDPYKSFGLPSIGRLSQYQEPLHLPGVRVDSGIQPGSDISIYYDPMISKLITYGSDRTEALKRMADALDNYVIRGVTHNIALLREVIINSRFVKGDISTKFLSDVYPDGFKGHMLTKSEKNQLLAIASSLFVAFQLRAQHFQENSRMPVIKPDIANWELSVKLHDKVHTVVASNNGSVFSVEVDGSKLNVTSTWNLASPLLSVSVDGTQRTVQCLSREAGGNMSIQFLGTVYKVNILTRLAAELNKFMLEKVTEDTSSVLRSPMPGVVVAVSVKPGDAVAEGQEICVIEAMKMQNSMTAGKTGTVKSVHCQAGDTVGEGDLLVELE
T19 sequence (P05166 29-539 partner): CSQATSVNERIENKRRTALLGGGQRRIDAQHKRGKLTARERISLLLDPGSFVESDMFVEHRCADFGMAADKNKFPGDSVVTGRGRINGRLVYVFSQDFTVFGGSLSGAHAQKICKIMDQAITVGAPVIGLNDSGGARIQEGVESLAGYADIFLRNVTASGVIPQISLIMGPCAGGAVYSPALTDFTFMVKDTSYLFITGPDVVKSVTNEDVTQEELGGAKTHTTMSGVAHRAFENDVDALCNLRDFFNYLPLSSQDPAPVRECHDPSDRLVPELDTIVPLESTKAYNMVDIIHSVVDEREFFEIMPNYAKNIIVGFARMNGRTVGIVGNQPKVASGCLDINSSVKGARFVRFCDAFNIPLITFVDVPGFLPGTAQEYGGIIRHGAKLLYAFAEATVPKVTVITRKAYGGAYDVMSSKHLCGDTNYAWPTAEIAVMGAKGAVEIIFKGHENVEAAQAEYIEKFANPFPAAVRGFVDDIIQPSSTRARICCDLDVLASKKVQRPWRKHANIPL

PRKAG1, PRKAG2 = test: ATPase profile (ATP acyl phosphate probe); type: binding; conditions: PRKAG1, PRKAG2, SEQ ID NO: 169, ATP BS
PRKAG2 = PRKAG2 (Homo sapiens, UniProt Q9UGJ0); test: ATPase profile (ATP acyl phosphate probe); type: binding; conditions: PRKAG2, SEQ ID NO: 170, ATP BS
TOR1A = molecular target: T20, TOR1A (Homo sapiens, UniProt O14656); test: ATPase profile (ATP acyl phosphate probe); type: binding; conditions: SEQ ID NO: 203, ATP BS
T20 construct: to get the native cell lysate; endogenous in cells; host or cells: A375 cell lysate
T20 sequence (O14656 21-332): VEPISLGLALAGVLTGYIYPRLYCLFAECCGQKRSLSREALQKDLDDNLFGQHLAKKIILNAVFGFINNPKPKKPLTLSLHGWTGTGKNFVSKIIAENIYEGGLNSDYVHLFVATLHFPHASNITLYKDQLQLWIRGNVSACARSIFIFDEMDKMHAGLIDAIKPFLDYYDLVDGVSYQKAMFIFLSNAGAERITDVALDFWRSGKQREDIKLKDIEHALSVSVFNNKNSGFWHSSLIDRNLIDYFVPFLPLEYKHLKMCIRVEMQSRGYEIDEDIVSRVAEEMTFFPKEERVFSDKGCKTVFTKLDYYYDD

TOR4A = molecular target: T21, TOR4A (Homo sapiens, UniProt Q9NXH8); test: ATPase profile (ATP acyl phosphate probe); type: binding; conditions: SEQ ID NO: 207, ATP BS
T21 construct: to get the native cell lysate; endogenous in cells; host or cells: A375 cell lysate

XRCC6 = molecular target: T22, XRCC6 (Homo sapiens, UniProt P12956); test: ATPase profile (ATP acyl phosphate probe); type: binding; conditions: XRCC6, SEQ ID NO: 232, ATP BS
T22 construct: to get the native cell lysate; endogenous in cells; host or cells: A375 cell lysate
T22 sequence (P12956 2-609 limits assumed): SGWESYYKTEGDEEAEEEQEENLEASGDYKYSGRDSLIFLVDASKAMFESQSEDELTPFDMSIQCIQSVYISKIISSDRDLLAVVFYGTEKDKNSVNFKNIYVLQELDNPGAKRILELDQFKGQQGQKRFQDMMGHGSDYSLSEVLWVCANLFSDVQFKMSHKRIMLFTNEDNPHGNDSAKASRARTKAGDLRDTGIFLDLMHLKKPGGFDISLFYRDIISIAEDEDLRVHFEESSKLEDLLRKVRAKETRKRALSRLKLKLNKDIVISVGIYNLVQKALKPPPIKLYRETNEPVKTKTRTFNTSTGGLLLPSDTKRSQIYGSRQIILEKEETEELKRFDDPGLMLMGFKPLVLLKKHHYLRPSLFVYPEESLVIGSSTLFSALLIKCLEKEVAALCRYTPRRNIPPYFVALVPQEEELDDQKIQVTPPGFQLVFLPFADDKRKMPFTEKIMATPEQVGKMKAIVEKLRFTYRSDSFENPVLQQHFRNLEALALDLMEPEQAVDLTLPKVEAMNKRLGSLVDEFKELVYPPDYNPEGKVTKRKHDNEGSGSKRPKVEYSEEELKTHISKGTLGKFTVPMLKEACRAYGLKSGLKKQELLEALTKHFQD
T22 sequence (P13010 2-732 partner limits assumed): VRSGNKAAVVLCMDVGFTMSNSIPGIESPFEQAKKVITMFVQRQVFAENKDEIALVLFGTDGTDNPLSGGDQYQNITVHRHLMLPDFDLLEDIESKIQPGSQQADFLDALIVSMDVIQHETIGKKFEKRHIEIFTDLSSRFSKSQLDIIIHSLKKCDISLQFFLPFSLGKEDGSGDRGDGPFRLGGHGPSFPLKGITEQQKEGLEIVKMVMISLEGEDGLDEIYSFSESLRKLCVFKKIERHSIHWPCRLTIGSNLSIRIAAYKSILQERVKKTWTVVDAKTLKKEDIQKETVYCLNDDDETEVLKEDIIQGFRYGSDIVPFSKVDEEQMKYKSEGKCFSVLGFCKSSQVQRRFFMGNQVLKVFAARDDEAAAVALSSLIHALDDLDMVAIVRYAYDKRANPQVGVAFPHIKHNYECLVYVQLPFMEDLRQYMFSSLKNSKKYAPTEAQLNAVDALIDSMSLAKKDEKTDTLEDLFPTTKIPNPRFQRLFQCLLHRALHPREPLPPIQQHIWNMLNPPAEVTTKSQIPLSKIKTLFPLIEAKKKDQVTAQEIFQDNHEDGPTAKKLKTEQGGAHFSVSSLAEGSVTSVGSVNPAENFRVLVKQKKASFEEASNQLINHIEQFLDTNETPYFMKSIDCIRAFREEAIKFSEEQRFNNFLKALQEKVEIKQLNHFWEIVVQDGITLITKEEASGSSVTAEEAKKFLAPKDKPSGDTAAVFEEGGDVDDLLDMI

Compound: Cn1c(=O)[nH]c2ccc(-c3cccc(C(=O)NC4CCn5ccnc5C4)c3)cc21 (stereo not drawn) [Z36-MP5, 3-(3-methyl-2-oxo-2,3-dihydro-1H-benzo[d]imidazol-5-yl)-N-(5,6,7,8-tetrahydroimidazo[1,2-a]pyridin-7-yl)benzamide]
- Mi-2β target gene expression including Cxc9, Cxcl10 and Irf1 [1]: induced
- Inhibition (%) by 1 μM Z36-MP5 (ABCB6): 8.49%
- Inhibition (%) by 1 μM Z36-MP5 (ABCC10): −3.83%
- Inhibition (%) by 1 μM Z36-MP5 (ABCF1): −8.08%
- Inhibition (%) by 1 μM Z36-MP5 (ABCF2; ABCF2, SEQ ID NO: 17, ATP BS): −7.92%
- Inhibition (%) by 1 μM Z36-MP5 (ABCF2; ABCF2, SEQ ID NO: 18, ATP BS): 26.88%
- Inhibition (%) by 1 μM Z36-MP5 (ACACA): 6.21%
- Inhibition (%) by 1 μM Z36-MP5 (ACTR2; ACTR2, SEQ ID NO: 25, ATP BS): −16.82%
- Inhibition (%) by 1 μM Z36-MP5 (ACTR2; ACTR2, SEQ ID NO: 26, ATP BS): −2.20%
- Inhibition (%) by 1 μM Z36-MP5 (CCT3): 10.09%
- Inhibition (%) by 1 μM Z36-MP5 (CCT4): 11.95%
- Inhibition (%) by 1 μM Z36-MP5 (CLPX): 0.44%
- Inhibition (%) by 1 μM Z36-MP5 (CNP): −17.28%
- Inhibition (%) by 1 μM Z36-MP5 (CPS1): 1.16%
- Inhibition (%) by 1 μM Z36-MP5 (DHX15): −5.22%
- Inhibition (%) by 1 μM Z36-MP5 (GARS): 16.66%
- Inhibition (%) by 1 μM Z36-MP5 (HDDC3; HDDC3, SEQ ID NO: 90, ATP BS): 1.23%
- Inhibition (%) by 1 μM Z36-MP5 (HDDC3; HDDC3, SEQ ID NO: 91, ATP BS): 17.25%
- Inhibition (%) by 1 μM Z36-MP5 [2]: −5.50%
- Inhibition (%) by 1 μM Z36-MP5 (HSPA9): −4.09%
- Inhibition (%) by 1 μM Z36-MP5 (KARS): 2.22%
- Inhibition (%) by 1 μM Z36-MP5 (MTHFD1): −6.16%
- Inhibition (%) by 1 μM Z36-MP5 (NADK2): −11.03%
- Inhibition (%) by 1 μM Z36-MP5 (PCCA; SEQ ID NO: 153, ATP BS): −5.50%
- Inhibition (%) by 1 μM Z36-MP5 (PCCA; SEQ ID NO: 154, ATP BS): −10.70%
- Inhibition (%) by 1 μM Z36-MP5 (PRKAG1, PRKAG2): −7.97%
- Inhibition (%) by 1 μM Z36-MP5 (PRKAG2): −22.54%
- Inhibition (%) by 1 μM Z36-MP5 (TOR1A): 4.27%
- Inhibition (%) by 1 μM Z36-MP5 (TOR4A): 5.38%
- Inhibition (%) by 1 μM Z36-MP5 (XRCC6): 10.61%
